Measurements from patent publication US20240182873A1, “PRENYLTRANSFERASE AND A […], TISSUE, AND ORGANISM COMPRISING SAME” (YEDA RESEARCH AND DEVELOPMENT CO. LTD., priority 2021, published 2024).

Key:
[1] = tested on: Helichrysum umbraculigerum HuPTx (SEQ ID NO: 7), N-terminal plastid targeting sequence removed; assay: Steady state kinetic analysis of HuPTx with olivetolic acid and GPP (yeast microsomes, CBGA production); type: biochemical; conditions: varying olivetolic acid (0.5 μM-1.5 mM), constant GPP (1 mM), pH 8.5, 30° C., 15 min, n=3
Description: (§1) FIG. 4 includes graphs showing steady state kinetic analysis of Helichrysum umbraculigerum PT1 (HuPT1; SEQ ID NO: 1), HuPT3 (SEQ ID NO: 3) and HuPTx (SEQ ID NO: 7) with olivetolic acid and GPP. The Michaelis-Menten Km value of each enzyme was calculated using varying olivetolic acid (0.5 μM-1.5 mM) and constant GPP (1 mM) concentrations (n=3 technically independent samples; measurements were plotted individually).
(§2) HuPT1 (SEQ ID NO: 1), HuPT2 (SEQ ID NO: 2), HuPT3 (SEQ ID NO: 3), HuPTx (SEQ ID NO: 7) genes from H. umbraculigerum and GOT4 gene from Cannabis sativa were separately cloned into pESC-HIS vector. Microsomal preparations from yeast cells transformed with pESC-HIS vectors were performed as described by Jozwiak et al. (2020). PT enzymatic assay was carried out as described previously for CsGOT4 (Luo et al., 2019).
(§3) Microsomes (2 μl) were dissolved in reaction buffer (50 mM Tris-HCl, 10 mM MgCl2, pH 8.5) and substrate was added [0.5 μM-1.5 mM μM olivetolic acid (Cayman Chemicals), 1 mM geranyl pyrophosphate (GPP, Sigma Aldrich)] to a total volume of 50 μl. Samples were incubated for 15 min at 30° C. Samples were extracted with 100 μl […] followed by vortexing and centrifugation. The organic layer was filtered and analyzed via UPLC-qTOF and Triple Quad (TQ) instruments. […]

[2] = tested on: Helichrysum umbraculigerum PT1 (HuPT1; SEQ ID NO: 1), N-terminal plastid targeting sequence removed; assay: Steady state kinetic analysis of HuPT1 with olivetolic acid and GPP (yeast microsomes, CBGA production); type: biochemical; conditions: varying olivetolic acid (0.5 μM-1.5 mM), constant GPP (1 mM), pH 8.5, 30° C., 15 min, n=3
Description: as §1, §2, §3

[3] = tested on: Helichrysum umbraculigerum HuPT3 (SEQ ID NO: 3), N-terminal plastid targeting sequence removed; assay: Steady state kinetic analysis of HuPT3 with olivetolic acid and GPP (yeast microsomes, CBGA production); type: biochemical; conditions: varying olivetolic acid (0.5 μM-1.5 mM), constant GPP (1 mM), pH 8.5, 30° C., 15 min, n=3
Description: as §1, §2, §3

[4] = tested on: Cannabis sativa geranylpyrophosphate:olivetolate geranyltransferase 4 (CsGOT4); conditions: Luo et al., 2019; cited from earlier work
[5] = In vitro enzymatic assay with PTs: CBGA production by yeast microsomal fractions; type: biochemical; conditions: purified yeast microsomal fraction expressing the PT; OA and GPP as substrates; LC-MS
Excerpt: FIG. 2 includes a graph showing in vitro production of cannabigerolic acid (CBGA). Purified microsomal fraction from yeast cells expressing prenyltransferases (PTs) were used in enzyme assay containing olivetolic acid (OA) and geranylpyrophosphate (GPP). Cannabis sativa geranylpyrophosphate:olivetolate geranyltransferase 4 (CsGOT4) enzyme assay was used as positive control in experiment. Extracted ion chromatograms (EICs) are shown. LC-MS was used for assay products analysis. Standard—STD; Negative control—Empty vector.
as §2
The inventors profiled six tissues (young leaf, old leaf, florets and receptacles of flowers, stems, and roots) from H. umbraculigerum, using UPLC-qTOF, and identified CBGA in all the tissues, excluding roots (FIG. 1). CBGA is the known central precursor to Δ^9-tetrahydrocannabinolic acid (THCA), cannabidiolic acid (CBDA) and several other cannabinoids. It is produced from olivetolic acid (OA) and geranyl pyrophosphate (GPP) by an enzymatic reaction catalyzed by geranylpyrophosphate:olivetolate geranyltransferase 4 (GOT4). To identify genes in H. umbraculigerum associated with GOT4 like activity, the inventors searched for candidate prenyltransferase genes in Helichrysum transcriptome. Four prenyltransferase like genes, namely, HuPT1 (SEQ ID NO: 1), HuPT2 (SEQ ID NO: 2), HuPT3 (SEQ ID NO: 3) and HuPTx (SEQ ID NO: 7) were selected for further characterization based on their differential expression profile in leaves compared to other tissues. All these PTs shared less than 40% homology with CsGOT4 that is known to partake in cannabinoid biosynthesis. […]

CCCCCc1cc(O)cc(O)c1C(=O)O [olivetolic acid]
Km [1]: 2 ± 0.8 µM
Km [2]: 19 ± 6.3 µM
Km [3]: 110 ± 44.3 µM
Km [4]: 6.7 ± 0.3 µM

B1: HuPT3: Prenyltransferase from Helichrysum umbraculigerum, gene SEQ ID NO: 3, expressed in yeast microsomes (protein)
chain: MKSLIIGSFSNKVSCYSPSLPDSSSSLIPTGCYHVSLRTFQRNRAIQAQSSLVRCNIGKFNETLLLSRKRSTKHVACAVSEQPIEPDATNPQSSLPNALDAFYRFSRPHTVIGTALSIVSVSLLAVQKLSDFSPLFFIGVFEAIVAAFFMNIYIVGLNQLSDIEIDKVNKPYLPLASGEYSVQTGIIIVSSFAVMSFWLGWIVGSWPLFWALFISFLLGTAYSINIPMLRWKRFALVAAMCILAVRAIIVQVAFYLHIQTFVYGRLAVFPKPVIFATGFMSFFSVVIALFKDIPDIVGDKIFGIQSFTVRMGQKRVFWICILLLEIAYGVAILVGASSPFLWSRYITVLGHAILGLILWGRAKSTDLESKSAITSFYMFIWQLFYAEYLLIPLVR
production of CBGA (PT activity) [5]: clear production of CBGA

B2: HuPTx: Prenyltransferase from Helichrysum umbraculigerum, gene SEQ ID NO: 7, expressed in yeast microsomes (protein)
chain: MASLAIGSLGSPSSRQCSSPVASSSSFAIGSQIASKFLRISKFDKTKNSPLTLQQKHINKSIDQSFFEPLPLHKINKDKFKLYATSTNNPQFDATHDLKTPEVSIINFVDALYRLIRPYTAVVTIVSVVAMSLLTVNSLSDFSPLFFIKVVQALIGGIFMQMYVSGFNQICDIELDKVNKQSLPLAAGELSMKTAIVIASLSAIMSLSIGWFVGSPPLLWCLVWWFIVGTAYSANVLPYLRWKRFPFTAAFCAMTSRALVLPIGYYLHMQNSIPGVSALLSRPILFAVAMLSAFSLSAMFFKDIPDIKGDRMHGIKSLAIKLGEKRVYWISISIIEIAYIAAAFIGATSPISWSKYVTIIGHLGMGLLLWVRARSVDPTNTVAVQSMYMFLIKLVYAEYGLISLVR
production of CBGA (PT activity) [5]: clear production of CBGA

B3: HuPT1: Prenyltransferase from Helichrysum umbraculigerum, gene SEQ ID NO: 1, expressed in yeast microsomes (protein)
chain: MELSLSSSSSSSLPQLHTHPSSSSSSSHYIKKSPFFINKFNNHTKCKFHNSSALRTNFFYTTITKTSSSRFVLNKNPNQFSVKACSQVGSAGSDPALNKVADFKDAFWRFLRPHTIRGTALGSVSLVTRALLENPNLIRWSLLLKAFSGLVALICGNGYIVGINQIYDIGIDKVNKPYLPIAAGDLSVQSAWFLVLAFAMVGVIIVGMNFGPFITSLYSLGLFLGTIYSVPPLRMKRFPVVAFLIIATVRGFLLNFGVYYAVRAALGLTFQWSSAVAFITTFVTLFALVIAITKDLPDVEGDRKFQISTFATKLGVRNIALLGSGLLLINYIGSIVAALYMPQAFRSSLMIPLHTILASCLIYQAWILERANYTQEAIAGYYRFVWNLFYSEYIIFPFI
production of CBGA (PT activity) [5]: clear production of CBGA
